According to patent publication US4985453A, “Parabanic acid derivatives and pharmaceutical compositions thereof” (Nippon Zoki Pharmaceutical Co., Ltd., priority 1988, dated 1991):

Target: T1, aldose reductase prepared from rat lenses (Rattus norvegicus, UniProt P07943)
T1 construct: aldose reductase prepared from rat lenses; from tissue; host or cells: rat lens
Experiment: Aldose reductase inhibitory activity
Format: biochemical
Settings: at 5×10^-7 M; glyceraldehyde substrate, NADPH, absorbance at 340 nm; read-out: Inhibitory rate (%) against aldose reductase
Description: Aldose reductase inhibitory activity of the compound of the present invention was evaluated by using aldose reductase prepared from rat lenses. The test compound was added to the reaction mixture consisting of phosphate buffer, NADPH and aldose reductase. After stability of absorbance was confirmed for a few minutes, glyceraldehyde was added to the reaction mixture and then the decrease in absorbance at 340 nm with the passage of time was measured to assay the inhibitory activity of the test compound against aldose reductase.
The inhibitory rate (%) against aldose reductase in the table is the values at 5×10^-7 M of the each test compound.

| SMILES | inhibition at 0.5 µM |
| --- | --- |
| O=C(O)CN1C(=O)C(=O)N(CCCCc2ccccc2)C1=O [Compound 57, 3-Carboxymethyl-1-(4-phenylbutyl)parabanic acid] | 25% |
| CCCCCCN1C(=O)C(=O)N(CC(=O)O)C1=O [Compound 33, 3-Carboxymethyl-1-hexylparabanic acid] | 35% |
| CC1CCC(N2C(=O)C(=O)N(CC(=O)O)C2=O)CC1 (stereo not shown) [Compound 34, 3-Carboxymethyl-1-(4-methylcyclohexyl)parabanic acid] | 49% |
| O=C(O)CN1C(=O)C(=O)N(Cc2cccc([N+](=O)[O-])c2)C1=O [Compound 48, 3-Carboxymethyl-1-(3-nitrobenzyl)parabanic acid] | 75% |
| O=C(O)CN1C(=O)C(=O)N(Cc2ccc(Cl)c(Cl)c2)C1=O [Compound 47, 3-Carboxymethyl-1-(3,4-dichlorobenzyl)parabanic acid] | 75% |
| O=C(O)CN1C(=O)C(=O)N(CCc2ccccc2Cl)C1=O [Compound 52, 3-Carboxymethyl-1-(2-(2-chlorophenyl)ethyl)parabanic acid] | 37% |
| O=C(O)CN1C(=O)C(=O)N(CCc2ccc(Cl)c(Cl)c2)C1=O [Compound 54, 3-Carboxymethyl-1-(2-(3,4-dichlorophenyl)ethyl)parabanic acid] | 57% |
| O=C(O)CN1C(=O)C(=O)N(Cc2ccc(Br)cc2)C1=O [Compound 44, 1-(4-Bromobenzyl)-3-carboxymethylparabanic acid] | 65% |
| O=C(O)CN1C(=O)C(=O)N(Cc2ccc(Cl)cc2Cl)C1=O [Compound 46, 3-Carboxymethyl-1-(2,4-dichlorobenzyl)parabanic acid] | 61% |
| O=C(O)CN1C(=O)NC(=O)C1=O [Compound 60, 1-carboxymethylparabanic acid] | 31% |
| O=C(O)CN1C(=O)C(=O)N(CCc2ccc(Br)cc2)C1=O [Compound 53, 1-(2-(4-Bromophenyl)ethyl)-3-carboxymethylparabanic acid] | 47% |

More lines, now with the values ahead:

| inhibition at 0.5 µM | SMILES |
| --- | --- |
| 44% | COc1cccc(CN2C(=O)C(=O)N(CC(=O)O)C2=O)c1 [Compound 39, 3-Carboxymethyl-1-(3-methoxybenzyl)parabanic acid] |
| 56% | O=C(O)CN1C(=O)C(=O)N(Cc2ccc(Cl)cc2)C1=O [Compound 43, 3-Carboxymethyl-1-(4-chlorobenzyl)parabanic acid] |
| 32% | O=C(O)CN1C(=O)C(=O)N(Cc2ccccc2Cl)C1=O [Compound 41, 3-Carboxymethyl-1-(2-chlorobenzyl)parabanic acid] |
| 31% | O=C(O)CN1C(=O)C(=O)N(Cc2cccc(Cl)c2)C1=O [Compound 42, 3-Carboxymethyl-1-(3-chlorobenzyl)parabanic acid] |
| 42% | COc1ccc(CCN2C(=O)C(=O)N(CC(=O)O)C2=O)cc1OC [Compound 51, 3-Carboxymethyl-1-(2-(3,4-dimethoxyphenyl)ethyl)parabanic acid] |
| 42% | Cc1ccc(CCN2C(=O)C(=O)N(CC(=O)O)C2=O)cc1 [Compound 50, 3-Carboxymethyl-1-(2-(4-methylphenyl)ethyl)parabanic acid] |
| 31% | CCOC(=O)CN1C(=O)C(=O)N(Cc2cccc([N+](=O)[O-])c2)C1=O [Compound 19, Ethyl 1-(3-nitrobenzyl)-2,4,5-trioxoimidazolidine-3-acetate] |
| 30% | O=C(O)CN1C(=O)C(=O)N(CCc2ccccc2)C1=O [Compound 49, 3-Carboxymethyl-1-(2-phenylethyl)parabanic acid] |
| 30% | Cc1ccc(CN2C(=O)C(=O)N(CC(=O)O)C2=O)cc1 [Compound 37, 3-Carboxymethyl-1-(4-methylbenzyl)parabanic acid] |
| 36% | O=C(O)CN1C(=O)C(=O)N(CCc2cccc([N+](=O)[O-])c2)C1=O [Compound 55, 3-Carboxymethyl-1-(2-(3-nitrophenyl)ethyl)parabanic acid] |
| 41% | Cc1ccccc1CN1C(=O)C(=O)N(CC(=O)O)C1=O [Compound 36, 3-Carboxymethyl-1-(2-methylbenzyl)parabanic acid] |

System: not listed separately
Experiment: Acute toxicity test (oral, LD50)
Settings: rat, in vivo, Wistar-strain male rats, groups of 8, death rate of 7 days
Description: The test compounds of the present invention were orally administered to groups of 8 Wistar-strain male rats, and the LD50 values were calculated based on the death rate of 7 days.

| SMILES | LD50 at 168 h |
| --- | --- |
| O=C(O)CN1C(=O)C(=O)N(Cc2cccc([N+](=O)[O-])c2)C1=O [Compound 48, 3-Carboxymethyl-1-(3-nitrobenzyl)parabanic acid] | > 5000 mg/kg |
| O=C(O)CN1C(=O)C(=O)N(Cc2ccc(Cl)c(Cl)c2)C1=O [Compound 47, 3-Carboxymethyl-1-(3,4-dichlorobenzyl)parabanic acid] | > 2000 mg/kg |
| O=C(O)CN1C(=O)C(=O)N(Cc2ccc(Br)cc2)C1=O [Compound 44, 1-(4-Bromobenzyl)-3-carboxymethylparabanic acid] | > 5000 mg/kg |
